Patent publication US20170319256A1, “METHOD OF SELECTIVELY KILLING CANCER CELLS USING LOW-TEMPERATURE PLASMA JET DEVICE AND METHOD OF TREATING TUMORS USING THE SAME” (Dong-A University Research Foundation for Industry-Academy …, priority 2016, published 2017)

Legend:
A549 and SKMEL2 cells = experiment: CHK1 phosphorylation immunofluorescence after kinase inhibitor pretreatment and NTP or NTPO; format: cell-based, human; details: inhibitor pretreatment (5 or 10 μM, 1 h before plasma), followed by NTP or NTPO; FIG. 3A
Description: (§1) Cells were treated using a previously reported plasma jet device. A typical operating condition of the pulsed-dc plasma jet has the applied voltage 1.6 kV, repetition frequency 50 kHz, and duty ratio 10%. The working gas (helium) and reactive gas (oxygen) flow rate were kept constant at 500 and 5 SCCM (SCCM denotes cubic centimeter per minute at standard temperature and pressure), respectively. The cells were cultured on 12-mm microscope cover glass coated with gelatin from porcine skin (Sigma-Aldrich) and were treated with helium generated-NTP with or without the flow of oxygen gas. The exposed cover glass was then transferred to 12-well plates containing fresh medium and incubated at 37° C. in a humidified incubator supplemented with 5% CO2. If necessary, the cells were treated with 5 or 10 μM of specific inhibitors targeting ATR (ETP46464), ATM (KU55933), DNA-PK (NU7026), or PARP1 (AZD2281) for 1 h before plasma treatment and kept until cell harvest. […]
(§2) For immunofluorescence staining, cells were fixed with 4% formaldehyde (Sigma-Aldrich) for 10 min at room temperature and permeabilized with 0.5% Triton™ X-100 (Bio Basic). […] The images were captured using a fluorescence microscope (Nikon) equipped with the NIS-Elements 4.0 Nikon imaging software. For quantification, a minimum of 500 cells were analyzed from each of three independent experiments.

A549 and SK-MEL2 cells = experiment: γH2AX phosphorylation immunofluorescence (marker for DNA breaks); format: cell-based, human; details: FIG. 4A
Description: as §1, §2

| SMILES | CHK1 phosphorylation (A549 and SKMEL2 cells) | γH2AX phosphorylation (A549 and SK-MEL2 cells; PARP-1 inhibitor plus treatment of NTP or NTPO) | γH2AX phosphorylation (A549 and SK-MEL2 cells; PARP-1 inhibitor, gas control) |
| --- | --- | --- | --- |
| CC(C)(C#N)c1ccc(N2C(=O)OCc3cnc4ccc(-c5cnc6ccccc6c5)cc4c32)cc1 [ETP 46464] | phosphorylation was not shown | – | – |
| O=C(c1cc(Cc2n[nH]c(=O)c3ccccc23)ccc1F)N1CCN(C(=O)C2CC2)CC1 [AZD2281, olaparib] | – | significantly increased | measured even in the case of gas control |
